This note sets out measurements from patent US20100273656A1, “COMPOSITION AND METHOD FOR SELECTIVE HERBICIDE” (priority 2002, published 2010).

The subject of series [1] is dandelions. Description: Example 16 metal salts of EDTA, greenhouse dandelion mortality. Format: in vivo, Taraxacum officinale. The following applies: for Dead Dandelion (#/20): pH 7. The method, then: This test investigated various metal chelates. All chelate solutions contained 0.4% metal ions with 10% excess chelator, and were adjusted to pH 7. For the combinations, these 4 solutions were mixed together in a 1:1 ratio. The solutions were sprayed onto greenhouse grown dandelions at a rate of 100 ml/m^2. The test was re-sprayed after 7 days.

Series [2] has as its system white clover. Description: Example 23 Cu-, Mn- or ZnHEDTA with Killex, white clover. It is filed as in vivo. The method, then:
(§1) Plants were fertilized with an all purpose water-soluble fertilizer mix of 20-20-20 (N-P-K; Plant-Prod®) as needed. All broadleaf weeds were grown individually in a 2¼-inch pot until they were a suitable size for herbicide tests (actual weed size is reported in examples below). Perennial ryegrass was also grown in 2¼-inch pots, however many grass seeds were sown in the pot to simulate a small section of turf. Grass plants were continually trimmed to a height of 4 cm, simulating that of a homeowner's lawn. For field tests, plots ¼ m^2 in size were marked out in areas containing the targeted broadleaf weed species growing in turf grass. Plots were continually mowed to simulate a homeowner's lawn. […] In all of the examples, the amounts of the various herbicide components are identified as a percent on a weight basis.
(§2) Killex® (Scotts Canada, Ltd., Ontario, Canada) is a commonly used selective lawn herbicide and was used as the commercial herbicide for herbicide combinations. The labeled dilution and application rates for Killex® are 6 ml into 1 L of solution (0.6%) applied at 200 ml/m^2.
(§3) All visual plant damage assessments were made using a quantitative rating scale; percent control relative to the untreated check (0=no effect; 100=plant death).
(§4) Materials and Methods: This trial was conducted in the greenhouse. Ten white clover plants and 10 pots of perennial ryegrass were selected for each treatment. Herbicide solutions were prepared using deionized water. The treatments were applied using a hand-trigger sprayer at 200 ml/m^2. All treatments were applied once. Phytotoxicity (%) was assessed 4 and 7 days after treatment (A4 and A7).

Series [3] deals with perennial ryegrass. Briefly: Example 23 Cu-, Mn- or ZnHEDTA with Killex, perennial ryegrass. Format: in vivo. The method, then:
as §1, §2, §3, §4

The subject of series [4] is dandelion. Description: Example 14 field dandelion test of iron chelates and 50:50 mixtures. Set-up: Surviving Dandelions (%): concentration or dose not given beside the values. It is filed as in vivo, Taraxacum officinale. The text has this: Solutions were made of FeHEDTA (0.2% Fe), FeEDTA (0.2% Fe), FeEDDS (0.4% Fe), and FeMGDA (0.4% Fe). For the combinations, these 4 solutions were mixed together in a 1:1 ratio. The plots (0.25 m^2) were sprayed 3 times at weekly intervals at a rate of 0.1 L/m^2. The plots contained a mixture of dandelion and hard fescue turfgrass.

Series [5] deals with dandelion. Description: Example 21 Fe chelates with Killex, dandelion. It is filed as in vivo, Taraxacum officinale. The following applies: A29 = 29 days after treatment. The method, then:
as §1, §2, §3
(§5) Materials and Methods: This trial was conducted in the greenhouse. […] Phytotoxicity (%) was assessed 29 days after treatment (A29).

Series [6] relates to perennial ryegrass. Briefly: Example 17 iron chelates with Killex, perennial ryegrass. Format: in vivo. The method, then:
as §1, §2, §3
(§6) Materials and Methods: This trial was conducted in the greenhouse. Nine pots of white clover and 10 pots of perennial ryegrass were selected for each treatment. Herbicidal solutions were prepared using deionized water. The treatments were applied using a handheld trigger sprayer at 200 ml/m^2. All treatments were applied once. Phytotoxicity (%) was assessed 4, 7, and 14 days after application (A4, A7, and A14).

Series [7] has as its system perennial ryegrass. Briefly: Example 21 Fe chelates with Killex, perennial ryegrass. Format: in vivo. Conditions: A29 = 29 days after treatment. The method, then: as §1, §2, §3, §5
For series [8], the system named is white clover. Briefly: Example 17 iron chelates with Killex, white clover. It is filed as in vivo. The method, then: as §1, §2, §3, §6
In series [9] the test system is dandelions. Briefly: Example 7 potassium nonanoate with FeHEDTA, greenhouse dandelions. Format: in vivo, Taraxacum officinale. The method, then:
(§7) The following non-limiting examples serve to further describe the invention. Unless otherwise specified, all of the iron solutions were made using the same molar concentration of iron ion as chelating agent. All of the outside tests were done on areas of mixed grass and dandelions that were at least 2 months old. For the greenhouse tests, dandelions were grown in a commercial greenhouse mix, using supplemental lighting and heating. Each plant was grown in a 2¼ inch pot to a minimum diameter of 20 cm. All of the solutions were sprayed onto the plants at a rate of 100 ml/m^2. The ferrous sulfate formulations that were used in examples 1, 2, 8 and 9 contained 1% iron (180 mM), 18 mM EDTA, 1% citric acid and 0.5% urea. In all of the examples, the amount of iron is identified in brackets as the percent iron on a weight basis.
(§8) All plant damage was assessed using a qualitative rating scale from 0 to 9.
This test compared the damaged caused by combinations of fatty acid and FeHEDTA. FeHEDTA was used at a concentration to 35.8 mM. The treatment with 0.1% Fe contained twice the molar amount of chelating agent as iron. The treatment with 0.2% iron contained the same molar amount of chelating agent as iron Potassium nonanoate (KC9) was used at 0.84%. The plants were re-sprayed 8 days after the first spray.

In the next series the test system is grass. Description: Example 1 field test of iron chelates, grass damage. The following applies: field, sprayed once at 100 ml/m^2, 5 days after spraying. It is filed as in vivo. The method, then: as §7, §8
(§9) All of the iron chelates were sprayed once at 0.2% Fe^+3 (35.8 mM), at a volume of 100 ml/m^2 onto 0.5 m^2 areas of mixed grass and dandelions. The spraying of the test was followed by 2 days of rain-free weather. Observations were made 5 days after spraying.

Series [10] relates to dandelions. Description: Example 1 field test of iron chelates, dandelion damage. It is filed as in vivo, Taraxacum officinale. Conditions: sprayed once at 100 ml/m^2, 5 days after spraying. The method, then: as §7, §8, §9
Where [11] appears, read: day 10 (re-sprayed after 7 days).
Where [12] appears, read: day 6, sprayed 3 times at weekly intervals.
Setting [13] is: A4 = 4 days after application, 0=no effect, 100=plant death.
Setting [14] is: A14 = 14 days after application.

`O=C([O-])CN(CCN(CC(=O)[O-])CC(=O)O)CC(=O)[O-].[Al+3]` [Al EDTA (0.4% Al)]: the “Dead Dandelion (#/20)” value in the series on dandelions [1] (day 7) and in the series on dandelions [1] (setting [11]) was 0 #/20 each time.

Turning to `O=C([O-])CN(CCN(CC(=O)O)CC(=O)O)CC(=O)[O-].[Cu+2]` [Cu EDTA (0.4% Cu)], the “Dead Dandelion (#/20)” value was 0 #/20 with dandelions [1] (day 7) and 4 #/20 in the series with dandelions [1] (setting [11]).

`O=C([O-])CN(CCO)CCN(CC(=O)[O-])CC(=O)[O-].[Cu+2]` [CuHEDTA 0.4% Cu]: the “Phytotoxicity (%) against white clover” value was found to be 32% in the series on white clover [2] (A4) and 62% in the series on white clover [2] (A7). The “Phytotoxicity (%) on perennial ryegrass” value with perennial ryegrass [3] (A4) and in the series on perennial ryegrass [3] (A7) was 3% in each case.

Consider `[Cl][Fe]([Cl])[Cl]` [FeCl3 (0.4% Fe), ferric chloride], for which the “Dead Dandelion (#/20)” value in the series with dandelions [1] (day 7) and with dandelions [1] (setting [11]) was 0 #/20 in each case.

`CC(C(=O)[O-])N(CC(=O)[O-])CC(=O)[O-].[Fe+3]` (stereo not shown) [FeMGDA]: the “Area Covered by Dandelion (%)” value with dandelion [4] (day 0) is recorded as 30%; in the series with dandelion [4] (setting [12]), 17%; with dandelion [4] (day 15), 12%; in the series with dandelion [4] (day 21) it was 2%. For the same molecule, the “Dandelion Count (#/0.25 m^2)” value was 72 #/0.25 m^2 with dandelion [4] (day 0), 71 #/0.25 m^2 in the series with dandelion [4] (day 6), 43 #/0.25 m^2 with dandelion [4] (day 13) and 19 #/0.25 m^2 in the series on dandelion [4] (day 21). The “Surviving Dandelions (%)” value in the series with dandelion [4] (day 6) was 99%; in the series with dandelion [4] (day 13), 60%; in the series on dandelion [4] (day 21), 26%. The “Dandelion Necrosis (%)” value amounted to 85% in the series on dandelion [4] (day 11), 99% in the series with dandelion [4] (day 18) and 80% in the series with dandelion [4] (day 33). Besides, the “Phytotoxicity (%) against dandelion” value with dandelion [5] is 12%. The “Phytotoxicity (%) against perennial ryegrass” value in the series on perennial ryegrass [6] (A4), with perennial ryegrass [6] (A7) and with perennial ryegrass [6] (A14) was 0% in each case. In the series on perennial ryegrass [7], the “Phytotoxicity (%) on perennial ryegrass” value came out at 0%. Besides, the “Phytotoxicity (%) against white clover” value is on record as 4% in the series with white clover [8] (setting [13]), 5% with white clover [8] (A7 = 7 days after application) and 2% with white clover [8] (setting [14]).

Consider `CCCCCCCCC(=O)[O-].[K+]` [KC9, Potassium nonanoate], for which the “Dead Plants (#/10)” value in the series on dandelions [9] (8 + 5 days after spraying) is 0 #/10. In addition, the “Plant Damage (0 to 9)” value with dandelions [9] (8 + 5 days after spraying (re-sprayed after 8 days)) is listed as 0.6 0 to 9; in the series with dandelions [9] (7 days after spraying), 0.0 0 to 9.

Turning to `O=C([O-])CN(CCO)CCN(CC(=O)[O-])CC(=O)[O-].[Mn+2]` [MnHEDTA 0.4% Mn], the entries for the “Phytotoxicity (%) against white clover” value with white clover [2] (A4) and with white clover [2] (A7) were 9% and 12%, respectively. For the same molecule, the “Phytotoxicity (%) on perennial ryegrass” value in the series on perennial ryegrass [3] (A4) and in the series with perennial ryegrass [3] (A7) was 1% each time.

`O=C([O-])CN(CCN(CC(=O)O)CC(=O)O)CC(=O)[O-].[Zn+2]` [Zn EDTA (0.4% Zn)]: the “Dead Dandelion (#/20)” value in the series on dandelions [1] (day 7) and in the series with dandelions [1] (setting [11]) was 0 #/20 throughout.

As to `O=C([O-])CN(CCN(CCO)CC(=O)O)CC(=O)[O-].[Zn+2]` [ZnHEDTA 0.4% Zn], the “Phytotoxicity (%) against white clover” value in the series with white clover [2] (A4) is listed as 4%; with white clover [2] (A7), 3%. The “Phytotoxicity (%) on perennial ryegrass” value with perennial ryegrass [3] (A4) came to 1%; with perennial ryegrass [3] (A7), 0%.

As to FeEDTA, the “Grass Damage (0 to 9)” value with grass worked out at 1. Also, the “Area Covered by Dandelion (%)” value with dandelion [4] (day 0) is on record as 30%; in the series with dandelion [4] (setting [12]), 10%; in the series on dandelion [4] (day 15) it was 7%; in the series with dandelion [4] (day 21), 1%. For the same molecule, the “Dandelion Count (#/0.25 m^2)” value with dandelion [4] (day 0) is 56 #/0.25 m^2; in the series on dandelion [4] (day 6), 33 #/0.25 m^2; in the series on dandelion [4] (day 13) it was 20 #/0.25 m^2; in the series on dandelion [4] (day 21), 19 #/0.25 m^2. Moreover, the “Surviving Dandelions (%)” value in the series on dandelion [4] (day 6) was 59%; in the series on dandelion [4] (day 13), 36%; in the series with dandelion [4] (day 21), 34%. Further, the “Dandelion Necrosis (%)” value was 90% in the series with dandelion [4] (day 11), 98% with dandelion [4] (day 18) and 90% with dandelion [4] (day 33). In addition, the “herbicidal comparison of metal EDTA chelates, in words” value in the series with dandelions [1] (Example 16, text) is “better herbicide than Al EDTA, Cu EDTA and ZnEDTA”. Also, the “Dead Dandelion (#/20)” value in the series on dandelions [1] (day 7) is 10 #/20; with dandelions [1] (setting [11]), 17 #/20. Further, the “Phytotoxicity (%) against perennial ryegrass” value stood at 4% in the series on perennial ryegrass [6] (A4), 2% in the series with perennial ryegrass [6] (A7) and 0% in the series on perennial ryegrass [6] (A14). The “Dandelion Damage (0 to 9)” value in the series with dandelions [10] was 8.3 0 to 9. Besides, the “Phytotoxicity (%) against white clover” value came out at 15% in the series on white clover [8] (setting [13]), 15% in the series on white clover [8] (A7 = 7 days after application) and 6% in the series on white clover [8] (setting [14]).
